Entries after “also recorded” stand apart in the source; their conditions may differ. Where two headings read alike, the source gives them in different places.
Key:
R2R3 (P301L) tau peptide = R2R3 (P301L) tau peptide (Homo sapiens, UniProt P10636, P618L); test: SPR titration cycle kinetics, immobilized R2R3 (P301L) peptide; format: binding
Description: SPR experiments were conducted using the Sierra® SPR‐24 Pro system (Bruker Daltonics, Bremen, Germany), featuring a gold‐coated microfluidic array (24 detection spots, 3 × 8 format). Data acquisition and kinetic analysis were performed using SPR Analyzer 4 software.
All experiments were conducted at 25°C using PBS (pH 7.4) supplemented with 0.05% Tween‐20 and 5% DMSO as the running buffer to ensure assay reproducibility. Assay components, including 96‐well microtiter plates (Part # 1862984; Burker) and Microplate and Reservoir Sealer (Part #1862985; Burker), were used for sample handling and were compatible with the Sierra SPR®‐24 Pro system (Bruker Daltonics, Billerica, MA, USA).
WT and mutant (P301L, V287I, and N279K) tau peptides were dissolved in 10 mM sodium acetate buffer (pH 5.0; Burker) and immobilized onto High‐Capacity Amine Sensor Surfaces (Part #1862614; Bruker) using the Amine Coupling Kit (Part #1862634; Bruker). The sensor surface was preconditioned with a Surface Elution Buffer (Part #1862656; Bruker Daltonics) and 0.1M HCl to remove contaminants and improve binding specificity.
The surface was activated using 400 mM 1‐ethyl‐3‐(3‐dimethylaminopropyl) carbodiimide (Burker) and 50 mM N‐hydroxysuccinimide (Burker), enabling covalent attachment of tau peptides. Unreacted binding sites were blocked with 1M ethanolamine‐HCl (pH 8.5; Burker) to minimize nonspecific interactions. For each experiment, specific sensor spots (A/B/C) on channels 1–8 were designated for tau‐analyte interactions, with corresponding reference spots on the same channel for baseline correction. DMSO calibration solutions (4.6%, 4.8%, 5%, 5.2%, and 5.4%) were prepared for double referencing to compensate for DMSO solvent effects.
PUR and OLC were prepared in PBS (pH 7.4) supplemented with 0.05% Tween‐20 and 5% DMSO. Compound interactions with tau peptides were pre‐screened using a concentration range of 1–100 μM, and subsequent binding kinetics were evaluated at optimized concentrations. For kinetic studies, PUR was tested at […], while OLC was tested at 25–100 μM using two‐fold serial dilutions. Each analyte was sequentially injected, and association and dissociation phases were monitored to determine kinetic parameters.
SPR binding kinetics were assessed using the titration cycle kinetics (TCK) assay, which included consecutive association phases followed by a single dissociation phase. Pre‐assay simulations using the Kinetic Simulator feature of SPR Analyzer 4 software were used to optimize analyte concentration ranges and association/dissociation times. A reference blank injection was included for double referencing, and a single dissociation curve was recorded for the highest analyte concentration.
Sensorgrams were analyzed using the Kinetic Titration model, which was integrated into the global kinetic fitting model of the SPR Analyzer 4 software. This approach allowed for baseline correction and improved the reliability of kinetic parameters, including the Kon, Koff, and KD.
TCK‐derived kinetic parameters were compared across multiple runs and confirmed using Multi Injection Cycle Kinetics to validate reproducibility and accuracy.

Tau Biosensor cells = test: MTS cytotoxicity assay, Tau Biosensor cells; format: cell-based; details: 0-100 µM, 72 h
Description: Figure S16. Cytotoxic activity of PUR and OLC. Tau Biosensor and CCRF-CEM (human leukemic lymphoblast) cells were treated with increasing concentrations (0-100 µM) of PUR and OLC for 72 h. Cell viability was then assessed using the MTS assay. CCRF-CEM (human leukemic lymphoblasts) cells, known for their high sensitivity to cytotoxic agents ^1, were used as positive controls. […] Calculated IC50 values are indicated in the graphs. Mean ± SEM (n = 3).

R2R3 (WT) tau peptide = molecular target: T1, R2R3 (WT) tau peptide (Homo sapiens, UniProt P10636); test: ThT aggregation assay of monomeric R2R3 (WT) peptide; format: biochemical; details: compound 10 μM; for ThT-stained aggregates, confocal imaging: R2R3 WT, end of ThT assay
T1 construct: Peptides spanning R2R3—including PHF6 and PHF6*; purchased ProteoGenix (Schiltigheim, France); host or cells: chemical synthesis (custom peptide)
T1 sequence (P10636 592-653 limits assumed): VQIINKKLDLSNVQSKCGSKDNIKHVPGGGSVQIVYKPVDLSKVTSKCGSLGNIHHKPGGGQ
Description: The aggregation kinetics of tau peptides were monitored using a ThT assay. A 40 μL reaction mixture containing 15 μM ThT (Sigma‐Aldrich, Cat. # T3516‐5G) and 50 μM peptide in the absence (control) or presence of 0.1 μM, 1 μM, and 10 μM PUR or OLC was prepared on ice in aggregation buffer (20 mM Tris [pH 7.4], 100 mM NaCl, 1 mM ethylenediaminetetraacetic acid [EDTA]) containing 5 μM heparin (Sigma‐Aldrich, Cat. #H4784). dithiothreitol (DTT) was excluded to avoid its differential effects on the aggregation kinetics of tau peptides containing Cys291 or Cys322 and to prevent peroxide generation by redox‐active compounds like PUR, which can lead to oxidative artifacts and false‐positive inhibition signals, as reported in our previous study (Annadurai, Malina, Salmona, et al., [2022]). This mixture was then dispensed into a clear‐bottom, black 384‐well ViewPlate (Revvity, Waltham, MA, United States; Part # 6007460) and sealed with a TopSealA‐PLUS (Revvity) to prevent evaporation.
Aggregation was monitored using EnSpire Multimode Plate Reader (Revvity) at 37°C with constant agitation (1000 rpm). […] ThT fluorescence (ThT—λ ex: 460–490 nm and λem: 500–550 nm) was recorded every 5–10 min for 48 h.
ThT fluorescence curves were fitted to a sigmoidal function in GraphPad Prism (version 10, San Diego, CA, USA) using the following equation:
Y=Top/1+expV50–X/Slope , where Y is the ThT fluorescence intensity, X is time (h), Top is the maximum fluorescence intensity, V50 is the time to reach 50% of Top, and Slope describes the steepness of the aggregation transition. Baseline fluorescence at the start of the measurements was relatively low across samples and was not separately fitted. In samples showing early increases in fluorescence, the aggregation trajectory was modeled directly without introducing an independent baseline parameter. […]
To evaluate the effect of compounds on the extent of aggregation, the AUC was calculated for each replicate ThT fluorescence curve using GraphPad Prism. […]

Sequence of R2R3 (P301L) tau peptide (P10636 592-653 P618L): as the sequence (P10636 592-653 limits assumed) above, with P27L counted along it

| SMILES | Kon (R2R3 (P301L) tau peptide; SPR, R2R3 P301L) [M⁻¹ s⁻¹] | koff (R2R3 (P301L) tau peptide; SPR, R2R3 P301L) [s⁻¹] | Kd (R2R3 (P301L) tau peptide; SPR, R2R3 P301L peptide immobilized, 25°C, PBS pH 7.4, read-out: KD) [µM] | cytotoxicity, cell viability (MTS) (Tau Biosensor cells) | ThT-stained aggregates, confocal imaging (R2R3 (WT) tau peptide) | Kd (R2R3 (P301L) tau peptide) [µM] | kon (R2R3 (P301L) tau peptide; SPR, R2R3 P301L) [M⁻¹ s⁻¹] | koff (R2R3 (P301L) tau peptide; SPR, R2R3 P301L, read-out: Koff) [s⁻¹] | remaining activity at 10 µM (R2R3 (WT) tau peptide; R2R3 WT 50 μM, read-out: aggregation (% of control), AUC of ThT fluorescence) [%] |
| --- | --- | --- | --- | --- | --- | --- | --- | --- | --- |
| C/C=C(/C=O)[C@@H](CC=O)CC(=O)OCCc1ccc(O)cc1 [OLC, oleocanthal] | 52.36 | 8.26e-05 | 1.58 | neither PUR nor OLC was cytotoxic; also recorded: non‐toxic | moderate reduction in fluorescence intensity |  |  |  |  |
| O=C1c2ccccc2C(=O)c2c(O)c(O)cc(O)c21 [PUR, purpurin] |  |  |  | neither PUR nor OLC was cytotoxic; also recorded: non‐toxic | moderate reduction in fluorescence intensity | 14.8 | 26.4 | 0.00039 | 63 |

Reference: paper PMC12381781, “Structural and functional insights into the selective inhibition of mutant tau aggregation by purpurin and oleocanthal in frontotemporal dementia” (Protein Science : A Publication of the Protein Society, 2025)
